Measurements: paper doi:10.1101/2025.02.01.636040v1 (bioRxiv, 2025)

Experiments:
CHIKVP [1] = target: T1, CHIKVP (Chikungunya virus, UniProt Q8JUX6); details: 500 µM of each peptide mixed, 5 µM CHIKVP, 10 minutes, LC-MS/UV peak area
CHIKVP [2] = target: T1, CHIKVP; details: 500 μM peptide, 5 μM CHIKVP, 1 hour, LC-MS extracted ion chromatograms
CHIKVP [3] = target: T1, CHIKVP; details: 300 µM CHIKVP, 1.5 mM peptide, 10 min, 298 K, 75 mM deuterated Tris pH 7.5

T1 sequence (Q8JUX6 1004-1327 limits assumed): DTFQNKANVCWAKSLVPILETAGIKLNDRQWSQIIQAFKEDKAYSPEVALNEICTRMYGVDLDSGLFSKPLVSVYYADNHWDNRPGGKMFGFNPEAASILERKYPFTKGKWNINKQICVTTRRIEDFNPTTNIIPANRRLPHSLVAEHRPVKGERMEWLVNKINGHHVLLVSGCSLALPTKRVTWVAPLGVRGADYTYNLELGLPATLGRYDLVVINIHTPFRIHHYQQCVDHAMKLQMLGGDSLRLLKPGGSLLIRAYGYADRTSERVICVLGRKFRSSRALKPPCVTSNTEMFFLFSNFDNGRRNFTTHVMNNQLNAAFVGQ

Substance	decrease in peak area (CHIKVP [1])	cleavage by CHIKVP by LC-MS (CHIKVP [2])	binding to CHIKVP from 1H-NMR line broadening (CHIKVP [3])
VEQLEDRAGA/GIIGGSRR	52.7%	effectively cleaved	–
DELRLDRAGG/YIFSS	54.1%	effectively cleaved	more potent binder of CHIKVP
